# Test results as given in patent US20060052289A1, “Use of somatostatin analogs in sleep apnea” (priority 2003, published 2006).
# Legend:
# [1] = tested on: patients with predominantly obstructive sleep apnea; assay: Clinical study in obstructive sleep apnea; type: in vivo, human; details: s.c. 100-600 μg, 2 months
# Procedure: Obstructive Sleep Apnea: 10 patients with predominantly obstructive sleep apnea are treated with Compound A for 2 months. Sleep recordings, blood gases evaluation and endocrinological controls are performed before, on the first night and at 2 months of therapy. In this study, the compounds of the invention, e.g. Compound A, reduce the number of obstructive sleep apnea episodes when administered s.c. at a dose of 100-600 μg.
# [2] = tested on: patients with central sleep apnea; assay: Clinical study in central sleep apnea; type: in vivo, human; details: s.c. 100-600 μg, 2 months
# Procedure: Central Sleep Apnea: 10 patients with central sleep apnea associated with high ventilatory responses to carbon dioxide, are treated with a compound of the invention for 2 months. Sleep recordings, ventilatory control studies (blood gases) and endocrinological controls are performed before, on the first night, at 2 weeks and at 2 months of therapy. In this study, the compounds of the invention, e.g. Compound A, reduce the abnormal high ventilatory responses and the number of central sleep apnea episodes, when administered s.c. at a dose of 100-600 μg.
# [3] = Tolerability at dosages required for use; type: in vivo; details: free form or pharmaceutically acceptable salt form
substance,measurement,setting,value
cyclo[{4-(NH2—C2H4—NH—CO—O—)Pro}-Phg-DTrp-Lys-Tyr(4-Bzl)-Phe] [Compound A],number of obstructive sleep apnea episodes,[1],reduce
same,abnormal high ventilatory responses,[2],reduce
same,number of central sleep apnea episodes,[2],reduce
same,tolerability,[3],well tolerated
